Bridge positions count the residues as written; N and C are the ends. Square brackets hold non-standard residues; d marks the D form. Peptide text beside a SMILES is read from it. * marks the point of attachment. ξ: configuration not given here. Phe(4-COOH) = N[C@@H](Cc1ccc(C(=O)O)cc1)C(=O)O; Phe(4-CH2NH2) = NCc1ccc(C[C@H](N)C(=O)O)cc1; Bip = N[C@@H](Cc1ccc(-c2ccccc2)cc1)C(=O)O; Phe(3-Me) = Cc1cccc(C[C@H](N)C(=O)O)c1; Val(3-OH) = CC(C)(O)[C@H](N)C(=O)O; 4Pal = N[C@@H](Cc1ccncc1)C(=O)O; 3Thi = N[C@@H](Cc1ccsc1)C(=O)O; Cha = N[C@@H](CC1CCCCC1)C(=O)O; Ile(3ξ) = CCC(C)[C@H](N)C(=O)O; Thr(3ξ) = CC(O)[C@H](N)C(=O)O; Carboxymethyl = O=C(O)C*; NMeA = CN[C@@H](C)C(=O)O; Pra = C#CC[C@H](N)C(=O)O; Dab = NCC[C@H](N)C(=O)O; NH(CH2)5NH2 = NCCCCCN*; NH(CH2)3NH2 = NCCCN*; ξV = CC(C)C(N)C(=O)O
What follows are compounds tested against T1, PE-labeled human PD-L1-Ig binding to Jurkat cell line over-expressing human PD-1 (Jurkat-PD-1) (Homo sapiens, UniProt Q15116) (assay: Jurkat-PD-1 Cell Binding High-Content Screening Assay (CBA): Method 1). Conditions: Jurkat-hPD-1 cells, PE-labeled PD-L1-Ig 20 nM final; read-out: Jurkat HPDL1 PD1 IC50 (uM) (Method 1).
T1 construct: expressed in transfected cells; host or cells: Jurkat
T1 sequence (Q15116 25-288): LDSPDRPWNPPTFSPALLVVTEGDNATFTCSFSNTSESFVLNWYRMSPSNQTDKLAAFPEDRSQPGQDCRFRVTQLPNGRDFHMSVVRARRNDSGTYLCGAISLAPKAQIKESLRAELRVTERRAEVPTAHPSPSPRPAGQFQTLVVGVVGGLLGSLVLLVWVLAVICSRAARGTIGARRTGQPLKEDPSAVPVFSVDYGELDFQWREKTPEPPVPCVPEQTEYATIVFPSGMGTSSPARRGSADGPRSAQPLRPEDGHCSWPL

Row | IC50 [µM] | Structure (SMILES)
1 | 0.02 | C#CC[C@H](NC(=O)[C@@H](C)NC(=O)[C@@H]1CSCC(=O)N[C@@H](Cc2cnc[nH]2)C(=O)N[C@@H](Cc2ccc(OCC(=O)O)cc2)C(=O)N[C@@H](CC(=O)O)C(=O)N[C@@H](Cc2c[nH]c3ccccc23)C(=O)N[C@@H](C(C)C)C(=O)N[C@@H](Cc2ccc(-c3ccccc3)cc2)C(=O)N[C@@H](C(C)CC)C(=O)N(C)[C@@H](C)C(=O)N[C@H](CC(C)C)C(=O)N[C@@H](CCN)C(=O)N[C@@H](CC2CCCCC2)C(=O)N[C@@H](C(C)(C)O)C(=O)N[C@@H](CO)C(=O)N1)C(=O)O (stereo partly drawn) [Compound 2239] ({CH2CO}-HY(Carboxymethyl)DWV[Bip][Ile(3ξ)][NMeA][dL][Dab][Cha][Val(3-OH)]SC[dA][Pra]-OH; thioether N-14)
2 | 0.04 | CC(C)C[C@H]1NC(=O)[C@H](C)N(C)C(=O)[C@H](C(C)C)NC(=O)[C@H](Cc2ccc(-c3ccccc3)cc2)NC(=O)[C@H](C(C)C)NC(=O)[C@H](Cc2c[nH]c3ccccc23)NC(=O)[C@H](CC(N)=O)NC(=O)[C@H](Cc2ccc(OCC(=O)O)cc2)NC(=O)[C@H](Cc2ccccc2)NC(=O)CSC[C@@H](C(=O)N[C@@H](C)C(=O)NCCCCCN)NC(=O)[C@H](CO)NC(=O)C(C(C)C)NC(=O)[C@H](CC2CCCCC2)NC(=O)[C@H](CC(N)=O)NC1=O (stereo partly drawn) [Compound 2240] ({CH2CO}-FY(Carboxymethyl)NWV[Bip]V[NMeA][dL]N[Cha][ξV]SCA-{NH(CH2)5NH2}; thioether N-14)
3 | 0.03 | CC(C)C[C@H]1NC(=O)[C@H](C)N(C)C(=O)[C@H](C(C)C)NC(=O)[C@H](Cc2ccc(-c3ccccc3)cc2)NC(=O)[C@H](C(C)C)NC(=O)[C@H](Cc2c[nH]c3ccccc23)NC(=O)[C@H](CC(=O)O)NC(=O)[C@H](Cc2ccncc2)NC(=O)[C@H](Cc2ccc(CN)cc2)NC(=O)CSC[C@@H](C(N)=O)NC(=O)[C@H](CO)NC(=O)[C@H](C(C)C)NC(=O)[C@H](CC2CCCCC2)NC(=O)[C@H](CC(N)=O)NC1=O [Compound 2242] ({CH2CO}-[Phe(4-CH2NH2)][4Pal]DWV[Bip]V[NMeA][dL]N[Cha]VSC-NH2; thioether N-14)
4 | 0.02 | CC(C)C[C@H]1NC(=O)[C@H](C)N(C)C(=O)[C@H](C(C)C)NC(=O)[C@H](Cc2ccc(-c3ccccc3)cc2)NC(=O)[C@H](C(C)C)NC(=O)[C@H](Cc2c[nH]c3ccccc23)NC(=O)[C@H](CC(=O)O)NC(=O)[C@H](Cc2ccc(CN)cc2)NC(=O)[C@H](Cc2ccc(OCC(=O)O)cc2)NC(=O)CSC[C@@H](C(N)=O)NC(=O)[C@H](CO)NC(=O)[C@H](C(C)C)NC(=O)[C@H](CC2CCCCC2)NC(=O)[C@H](CC(N)=O)NC1=O [Compound 2243] ({CH2CO}-Y(Carboxymethyl)[Phe(4-CH2NH2)]DWV[Bip]V[NMeA][dL]N[Cha]VSC-NH2; thioether N-14)
5 | 0.04 | CC(C)C[C@H]1NC(=O)[C@H](C)N(C)C(=O)[C@H](CCCCN)NC(=O)[C@H](Cc2ccc(-c3ccccc3)cc2)NC(=O)[C@H](C(C)C)NC(=O)[C@H](Cc2c[nH]c3ccccc23)NC(=O)[C@H](CC(=O)O)NC(=O)[C@H](Cc2ccncc2)NC(=O)[C@H](Cc2ccc(OCC(=O)O)cc2)NC(=O)CSC[C@@H](C(N)=O)NC(=O)[C@H](CO)NC(=O)[C@H](C(C)C)NC(=O)[C@H](CC2CCCCC2)NC(=O)[C@H](CC(N)=O)NC1=O [Compound 2244] ({CH2CO}-Y(Carboxymethyl)[4Pal]DWV[Bip]K[NMeA][dL]N[Cha]VSC-NH2; thioether N-14)
6 | 0.01 | CC(C)C[C@H]1NC(=O)[C@H](C)N(C)C(=O)[C@H](C(C)C)NC(=O)[C@H](Cc2ccc(-c3ccccc3)cc2)NC(=O)[C@H](C(C)C)NC(=O)[C@H](Cc2c[nH]c3ccccc23)NC(=O)[C@H](CC(=O)O)NC(=O)[C@H](Cc2ccncc2)NC(=O)[C@H](Cc2ccc(OCC(=O)O)cc2)NC(=O)CSC[C@@H](C(N)=O)NC(=O)[C@H](CO)NC(=O)[C@H](C(C)C)NC(=O)[C@H](CC2CCCCC2)NC(=O)[C@H](CCCCN)NC1=O [Compound 2245] ({CH2CO}-Y(Carboxymethyl)[4Pal]DWV[Bip]V[NMeA][dL]K[Cha]VSC-NH2; thioether N-14)
7 | 0.03 | CC(C)C[C@H]1NC(=O)[C@H](C)N(C)C(=O)[C@H](C(C)C)NC(=O)[C@H](Cc2ccc(-c3ccccc3)cc2)NC(=O)[C@H](C(C)C)NC(=O)[C@H](Cc2c[nH]c3ccccc23)NC(=O)[C@H](CC(=O)O)NC(=O)[C@H](Cc2ccncc2)NC(=O)[C@H](Cc2ccc(OCC(=O)O)cc2)NC(=O)CSC[C@@H](C(N)=O)NC(=O)[C@H](CCCCN)NC(=O)[C@H](C(C)C)NC(=O)[C@H](CC2CCCCC2)NC(=O)[C@H](CC(N)=O)NC1=O [Compound 2246] ({CH2CO}-Y(Carboxymethyl)[4Pal]DWV[Bip]V[NMeA][dL]N[Cha]VKC-NH2; thioether N-14)
8 | 0.06 | CCC(C)[C@@H]1NC(=O)[C@H](Cc2ccc(-c3ccccc3)cc2)NC(=O)[C@H](C(C)C)NC(=O)[C@H](Cc2c[nH]c3ccccc23)NC(=O)[C@H](CC(=O)O)NC(=O)[C@H](Cc2ccc(O)cc2)NC(=O)[C@H](Cc2ccsc2)NC(=O)CSC[C@@H](C(=O)NCCCN)NC(=O)[C@H](C(C)O)NC(=O)[C@H](C(C)(C)O)NC(=O)[C@H](CC2CCCCC2)NC(=O)[C@H](CC(N)=O)NC(=O)[C@@H](CC(C)C)NC(=O)[C@H](C)N(C)C1=O (stereo partly drawn) [Compound 2247] ({CH2CO}-[3Thi]YDWV[Bip][Ile(3ξ)][NMeA][dL]N[Cha][Val(3-OH)][Thr(3ξ)]C-{NH(CH2)3NH2}; thioether N-14)
9 | 0.04 | CCC(C)[C@@H]1NC(=O)[C@H](Cc2ccc(-c3ccccc3)cc2)NC(=O)[C@H](C(C)C)NC(=O)[C@H](Cc2c[nH]c3ccccc23)NC(=O)[C@H](CC(=O)O)NC(=O)[C@H](Cc2ccc(OCC(=O)O)cc2)NC(=O)[C@H](C(C)O)NC(=O)CSC[C@@H](C(N)=O)NC(=O)[C@H](C(C)O)NC(=O)[C@H](C(C)C)NC(=O)[C@H](CC2CCCCC2)NC(=O)[C@H](CCN)NC(=O)[C@@H](CC(C)C)NC(=O)[C@H](C)N(C)C1=O (stereo partly drawn) [Compound 2248] ({CH2CO}-[Thr(3ξ)]Y(Carboxymethyl)DWV[Bip][Ile(3ξ)][NMeA][dL][Dab][Cha]V[Thr(3ξ)]C-NH2; thioether N-14)
10 | 0.08 | Cc1cccc(C[C@@H]2NC(=O)[C@H](CC(=O)O)NC(=O)[C@H](Cc3ccc(OCC(=O)O)cc3)NC(=O)[C@H](C(C)O)NC(=O)CSC[C@@H](C(N)=O)NC(=O)[C@H](C(C)O)NC(=O)[C@H](C(C)C)NC(=O)[C@H](CC3CCCCC3)NC(=O)[C@H](CCN)NC(=O)[C@@H](CC(C)C)NC(=O)[C@H](C)N(C)C(=O)[C@H](Cc3ccc(OCC(=O)O)cc3)NC(=O)[C@H](Cc3ccc(-c4ccccc4)cc3)NC(=O)[C@H](Cc3ccc(C(=O)O)cc3)NC2=O)c1 (stereo partly drawn) [Compound 2249] ({CH2CO}-[Thr(3ξ)]Y(Carboxymethyl)D[Phe(3-Me)][Phe(4-COOH)][Bip]Y(Carboxymethyl)[NMeA][dL][Dab][Cha]V[Thr(3ξ)]C-NH2; thioether N-14)
11 | 0.02 | CCC(C)[C@@H]1NC(=O)[C@H](Cc2ccc(-c3ccccc3)cc2)NC(=O)[C@H](C(C)C)NC(=O)[C@H](Cc2cccc(C)c2)NC(=O)[C@H](CC(=O)O)NC(=O)[C@H](Cc2ccc(OCC(=O)O)cc2)NC(=O)[C@H](C(C)O)NC(=O)CSC[C@@H](C(N)=O)NC(=O)[C@H](C(C)O)NC(=O)[C@H](C(C)C)NC(=O)[C@H](CC2CCCCC2)NC(=O)[C@H](CCN)NC(=O)[C@@H](CC(C)C)NC(=O)[C@H](C)N(C)C1=O (stereo partly drawn) [Compound 2250] ({CH2CO}-[Thr(3ξ)]Y(Carboxymethyl)D[Phe(3-Me)]V[Bip][Ile(3ξ)][NMeA][dL][Dab][Cha]V[Thr(3ξ)]C-NH2; thioether N-14)
12 | 0.02 | CCC(C)[C@@H]1NC(=O)[C@H](Cc2ccc(-c3ccccc3)cc2)NC(=O)[C@H](C(C)C)NC(=O)[C@H](Cc2c[nH]c3ccccc23)NC(=O)[C@H](CC(=O)O)NC(=O)[C@H](Cc2ccc(OCC(=O)O)cc2)NC(=O)[C@H](C(C)O)NC(=O)CSC[C@@H](C(N)=O)NC(=O)[C@H](CO)NC(=O)[C@H](C(C)C)NC(=O)[C@H](CC2CCCCC2)NC(=O)[C@H](CCN)NC(=O)[C@@H](CC(C)C)NC(=O)[C@H](C)N(C)C1=O (stereo partly drawn) [Compound 2251] ({CH2CO}-[Thr(3ξ)]Y(Carboxymethyl)DWV[Bip][Ile(3ξ)][NMeA][dL][Dab][Cha]VSC-NH2; thioether N-14)
13 | 0.08 | CC(C)C[C@@H]1NC(=O)[C@H](Cc2c[nH]c3ccccc23)NC(=O)[C@H](CC(=O)O)NC(=O)[C@H](Cc2ccc(C(=O)O)cc2)NC(=O)[C@H](Cc2ccc(OCC(=O)O)cc2)NC(=O)CSC[C@@H](C(N)=O)NC(=O)[C@H](CO)NC(=O)[C@H](C(C)C)NC(=O)[C@H](CC2CCCCC2)NC(=O)[C@H](Cc2cnc[nH]2)NC(=O)[C@@H](CC(C)C)NC(=O)[C@H](C)N(C)C(=O)[C@H](C(C)C)NC(=O)[C@H](Cc2ccc(-c3ccccc3)cc2)NC1=O [Compound 2252] ({CH2CO}-Y(Carboxymethyl)[Phe(4-COOH)]DWL[Bip]V[NMeA][dL]H[Cha]VSC-NH2; thioether N-14)
14 | 0.04 | CC(C)C[C@@H]1NC(=O)[C@H](Cc2c[nH]c3ccccc23)NC(=O)[C@H](CC(=O)O)NC(=O)[C@H](Cc2ccc(OCC(=O)O)cc2)NC(=O)[C@H](C(C)O)NC(=O)CSC[C@@H](C(N)=O)NC(=O)[C@H](CO)NC(=O)[C@H](C(C)C)NC(=O)[C@H](CC2CCCCC2)NC(=O)[C@H](Cc2cnc[nH]2)NC(=O)[C@@H](CC(C)C)NC(=O)[C@H](C)N(C)C(=O)[C@H](C(C)C)NC(=O)[C@H](Cc2ccc(-c3ccccc3)cc2)NC1=O (stereo partly drawn) [Compound 2253] ({CH2CO}-[Thr(3ξ)]Y(Carboxymethyl)DWL[Bip]V[NMeA][dL]H[Cha]VSC-NH2; thioether N-14)
15 | 0.16 | CC(=O)NCCCC[C@@H]1NC(=O)[C@H](Cc2ccc(-c3ccccc3)cc2)NC(=O)[C@H](Cc2ccc(O)cc2)NC(=O)[C@H](Cc2c[nH]c3ccccc23)NC(=O)[C@H](CC(=O)O)NC(=O)[C@H](Cc2ccc(OCC(=O)O)cc2)NC(=O)[C@H](C(C)O)NC(=O)CSC[C@@H](C(N)=O)NC(=O)[C@H](C(C)O)NC(=O)[C@H](C(C)C)NC(=O)[C@H](CC2CCCCC2)NC(=O)[C@H](CCN)NC(=O)[C@@H](CC(C)C)NC(=O)[C@H](C)N(C)C1=O (stereo partly drawn) [Compound 2254] ({CH2CO}-[Thr(3ξ)]Y(Carboxymethyl)DWY[Bip]K(Ac)[NMeA][dL][Dab][Cha]V[Thr(3ξ)]C-NH2; thioether N-14)
